Values belong to the compound of their own block, whether it stands above or below them.
Tests used:
[1] = Cytotoxicity against human U-343MG cells; type: functional, cell-based
[2] = Induction of apoptosis in human U373 MG cells at 1 uM relative to control; type: functional, U-373MG ATCC
U-251 [3] = assay: Induction of apoptosis in human U-251MG cells assessed as increase in PARP cleavage at 12.5 to 100 uM incubated for 24 hrs by Western blot analysis; type: functional; settings: dose 12.5-100 µM
[4] = target: T1, Dual specificity tyrosine-phosphorylation-regulated kinase 1A (Homo sapiens, UniProt Q13627); assay: Inhibition of DYRK1A (unknown origin) by TR-FRET assay
[5] = target: T1, Dual specificity tyrosine-phosphorylation-regulated kinase 1A; assay: Inhibition of DYRK1A (unknown origin) incubated for 2 hrs in presence of [gamma-33P]-ATP by radioactivity based assay
H4 = assay: Antiproliferative activity against human H4 cells assessed as reduction in cell viability incubated for 72 hrs by Presto-Blue cell viability assay; type: functional, cell-based; settings: H4, 72 h
U-87 MG [6] = assay: Antiproliferative activity against human U-87 MG cells assessed as reduction in cell viability incubated for 72 hrs by Presto-Blue cell viability assay; type: functional, cell-based, U-87MG ATCC
U-87 MG [7] = assay: Antitumor activity against human U-87 MG cells xenografted in mouse model assessed as reduction in tumor growth at 15 mg/kg, ip administered once daily for 5 days relative to control; type: functional, U-87MG ATCC; parameters: scale not given: the % may be the effect or the level left; settings: time 5 day
U-87 MG [8] = assay: Antitumor activity against human U-87 MG cells xenografted in mouse model assessed as reduction in tumor growth at 60 mg/kg, ip administered once daily for 5 days relative to control; type: functional, U-87MG ATCC; parameters: scale not given: the % may be the effect or the level left; settings: time 5 day
U-251 [9] = assay: Cytotoxicity against human U-251MG cells assessed as reduction in cell growth incubated for 72 hrs by MTT assay; type: functional, cell-based; settings: U-251, 72 h
U-87 MG [10] = assay: Antiproliferative activity against human U-87 MG cells assessed as reduction in cell viability incubated for 72 hrs by WST-8 reagent based assay; type: functional, U-87MG ATCC
T98G = assay: Antiproliferative activity against human T98G cells assessed as reduction in cell viability incubated for 72 hrs by WST-8 reagent based assay; type: functional
U-251 [11] = assay: Cytotoxicity against human U-251MG cells assessed as reduction in cell growth measured for 48 hrs by MTT assay; type: functional, cell-based; settings: U-251, 48 h
U-87 MG [12] = assay: Cytotoxicity against human U-87 MG cells assessed as reduction in cell growth measured for 48 hrs by MTT assay; type: functional, cell-based, U-87MG ATCC
U-251 [13] = assay: Antitumor activity against human U-251MG cells xenografted in BALB/c nude mouse assessed as reduction in tumor growth at 4 mg/kg, ip administered once daily and measured after 28 days relative to control; type: functional; settings: U-251, 672 h, time 28 day, read-out: TGI
U-251 [14] = assay: Antitumor activity against human U-251MG cells xenografted in BALB/c nude mouse assessed as reduction in tumor growth at 8 mg/kg, ip administered once daily and measured after 28 days relative to control; type: functional; settings: U-251, 672 h, time 28 day, read-out: TGI
U-87 MG [15] = assay: Antiproliferative activity against human U-87 MG cells measured for 48 hrs by MTT assay; type: functional, cell-based, U-87MG ATCC
U-87 MG [16] = assay: Antiproliferative activity against human U-87 MG cells by MTT assay; type: functional, cell-based, U-87MG ATCC
C6 = assay: Antiproliferative activity against rat C6 cells by MTT assay; type: functional, cell-based
M059J = assay: Cytotoxicity against human M059J cells assessed as reduction in cell viability incubated for 72 hrs by MTT assay; type: functional, cell-based
[17] = Cytotoxicity against human M059K cells assessed as reduction in cell viability incubated for 72 hrs by MTT assay; type: functional, cell-based
[18] = Anticancer activity against human U373 MG cells assessed as reduction in cell viability incubated for 72 hrs by MTT assay; type: functional, cell-based, U-373MG ATCC
CAKI-1 = assay: Antitumor activity against human CAKI-1 cells xenografted in BALB/c athymic nude mouse assessed as inhibition of tumor growth at 5 mg/kg, po administered 5 times per week and measured for 3 times per week for 42 days relative to control; type: functional; settings: CAKI-1, 1008 h, time 42 day, read-out: TGI
U-251 [19] = assay: Cytotoxicity against human U-251MG cells assessed as reduction in cell growth; type: functional, cell-based

Structure (SMILES): C=C[C@H]1CN2CCc3c([nH]c4c([C@@H]5CCCN5C)c(O)ccc34)[C@@H]2C[C@@H]1C[C@H]1c2[nH]c3ccccc3c2CCN1C
IC50 [1]: ~1 µM | Activity [2]: 80%

Structure (SMILES): Cc1nccc2c1[nH]c1cc(O)ccc12
Activity (U-251 [3]): 486% | IC50 [4]: 0.07 µM | IC50 [5]: 0.016 µM | IC50 (H4): 10.9 µM | IC50 (U-87 MG [6]): 19.1 µM | Activity (U-87 MG [7]): 28.2% | Activity (U-87 MG [8]): 38.1%

Structure (SMILES): COc1ccc2c3c(c4cc(OC)c(OC)cc4c2c1)CN1CCC[C@H]1C3
IC50 (U-251 [9]): 3.34 µM | EC50 (U-87 MG [10]): 29 µM | EC50 (T98G): 40 µM

Structure (SMILES): c1ccc2c(c1)[nH]c1c2cc[n+]2cc3c(cc12)CCCC3
IC50 (U-251 [11]): 4.98 µM | IC50 (U-87 MG [12]): 4.71 µM | inhibition in vivo at 4 mg/kg (U-251 [13]): 49.5% | inhibition in vivo at 8 mg/kg (U-251 [14]): 58.9%

IC50 (U-87 MG [15]): 5.21 µM | IC50 (U-87 MG [16]): 3.7 µM
Structure (SMILES): CN1c2ccccc2C(=O)N2CCc3c([nH]c4ccccc34)[C@H]21
IC50 (C6): 4.3 µM

Structure (SMILES): COc1cc2c(cc1O)CCN[C@]21CS[C@@H]2c3c(OC(C)=O)c(C)c4c(c3[C@@H](COC1=O)N1[C@@H]2[C@H]2c3c(cc(C)c(OC)c3O)C[C@@H]([C@@H]1O)N2C)OCO4
IC50 (M059J): 0.041 nM | IC50 [17]: 0.0002 µM

Structure (SMILES): COc1cc2c(cc1O)CCN[C@]21CS[C@@H]2c3c(OC(C)=O)c(C)c4c(c3[C@@H](COC1=O)N1[C@@H]2[C@H]2c3c(cc(C)c(OC)c3O)C[C@@H]([C@@H]1C#N)N2C)OCO4
IC50 [18]: 0.0031 µM

Structure (SMILES): COc1ccc2c3c(c4cc(OC)c(OC)cc4c2c1)C[C@H]1CCCN1C3 [(-)-ANTOFINE]
inhibition in vivo at 5 mg/kg (CAKI-1): 59% | IC50 (U-251 [19]): 0.211 µM

Reference: ChEMBL document CHEMBL6115010, “Targeting glioma with heteroaromatic alkaloids: A review of potential therapeutics” (Bioorg Med Chem, 2025)
